Assay [1] has as its system Receptor-type tyrosine-protein kinase FLT3 (Homo sapiens), P36888 [UNDEFINED MUTATION]. Kind of assay: Inhibition of FLT3 ITD mutant in human MOLM13 cells assessed as residual activity at 100 nM relative to control. It counts as cell-based. To be noted: MOLM-13.
For assay [2], the target named is Tyrosine-protein kinase JAK1 (Homo sapiens, UniProt P23458). As to the kind of experiment: Inhibition of human JAK1 (866 to end residues) using GEEPLYWSFPAKKK as substrate after 40 mins by [gamma-33ATP] radiometric assay.
Assay [3] deals with Non-receptor tyrosine-protein kinase TYK2 (Homo sapiens, UniProt P29597). Kind of assay: Inhibition of recombinant human TYK2 (875 to end residues) using GGMEDIYFEFMGGKKK as substrate incubated for 40 mins in presence of [gamma33P]ATP by scintillation counting based radiometry assay.
Another assay is filed under the species Homo sapiens. As to the kind of experiment: Selectivity index, ratio of IC50 for inhibition of FLT3 ITD mutant in human MOLM13 cells to IC50 for inhibition of JAK2 V617F mutant in human SET-2 cells. It counts as cell-based.
Assay [4] is described as follows: Selectivity index, ratio of IC50 for inhibition of recombinant human JAK3 (781 to end residues) to IC50 for inhibition of recombinant human JAK2 (808 to end residues).
The nature of assay [5]: Selectivity index, ratio of IC50 for inhibition of recombinant human TYK2 (875 to end residues) to IC50 for inhibition of recombinant human JAK2 (808 to end residues).
A short description of assay [6]: Selectivity index, ratio of IC50 for inhibition of recombinant human FLT3 D835Y mutant (564 to end residues) to IC50 for inhibition of recombinant human JAK2 (808 to end residues).
In assay [7] the target is T1, Tyrosine-protein kinase JAK3 (Homo sapiens, UniProt P52333).
T1 sequence (P52333 whole entry): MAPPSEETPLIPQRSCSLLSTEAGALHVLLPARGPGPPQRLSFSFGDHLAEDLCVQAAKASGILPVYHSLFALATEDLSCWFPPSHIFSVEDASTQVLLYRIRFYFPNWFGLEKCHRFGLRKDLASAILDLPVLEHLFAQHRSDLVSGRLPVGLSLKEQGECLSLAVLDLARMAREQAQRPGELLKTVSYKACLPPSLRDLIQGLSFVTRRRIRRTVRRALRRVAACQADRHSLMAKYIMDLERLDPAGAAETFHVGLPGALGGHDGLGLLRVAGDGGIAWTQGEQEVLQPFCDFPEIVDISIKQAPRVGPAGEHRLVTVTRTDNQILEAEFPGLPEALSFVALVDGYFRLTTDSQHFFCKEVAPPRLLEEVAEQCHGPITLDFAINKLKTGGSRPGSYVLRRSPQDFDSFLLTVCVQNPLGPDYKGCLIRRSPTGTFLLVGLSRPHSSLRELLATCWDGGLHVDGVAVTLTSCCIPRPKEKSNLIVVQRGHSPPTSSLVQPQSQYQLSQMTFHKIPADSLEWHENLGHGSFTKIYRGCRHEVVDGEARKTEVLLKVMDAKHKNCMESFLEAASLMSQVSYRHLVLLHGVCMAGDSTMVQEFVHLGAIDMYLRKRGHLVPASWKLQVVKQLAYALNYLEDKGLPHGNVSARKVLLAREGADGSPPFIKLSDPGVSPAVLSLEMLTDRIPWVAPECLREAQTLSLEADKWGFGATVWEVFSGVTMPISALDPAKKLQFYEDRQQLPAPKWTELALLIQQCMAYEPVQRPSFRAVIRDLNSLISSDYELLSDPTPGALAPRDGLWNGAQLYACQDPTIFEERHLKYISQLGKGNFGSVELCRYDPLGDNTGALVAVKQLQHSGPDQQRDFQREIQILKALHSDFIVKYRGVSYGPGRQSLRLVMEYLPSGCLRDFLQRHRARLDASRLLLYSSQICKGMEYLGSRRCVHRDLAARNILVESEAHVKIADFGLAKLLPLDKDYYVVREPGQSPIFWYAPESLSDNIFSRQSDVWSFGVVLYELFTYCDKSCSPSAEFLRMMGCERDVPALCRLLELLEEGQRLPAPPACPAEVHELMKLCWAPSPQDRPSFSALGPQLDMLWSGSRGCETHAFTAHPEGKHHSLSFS
As to the kind of experiment: Inhibition of recombinant human JAK3 (781 to end residues) using GGEEEEYFELVKKKK as substrate measured after 40 mins in presence of [gamm33P]ATP by scintillation counting method.

Assay [8] in a line: Selectivity index, ratio of IC50 for inhibition of human JAK1 (866 to end residues) to IC50 for inhibition of recombinant human JAK2 (808 to end residues).
The target in assay [9] is Tyrosine-protein kinase JAK2 (Homo sapiens, UniProt O60674). Kind of assay: Inhibition of recombinant human JAK2 (808 to end residues) KTFCGTPEYLAPEVRREPRILSEEEQEMFRDFDYIADWC as substrate measured after 40 mins in presence of [gamm33P]ATP by scintillation counting method.
Assay [10] has as its target Receptor-type tyrosine-protein kinase FLT3 (Homo sapiens, UniProt P36888, D835Y). As to the kind of experiment: Inhibition of recombinant human FLT3 D835Y mutant (564 to end residues) using EAIYAAPFAKKK as substrate at 40 mins in presence of [gamma-33ATP] by scintillation counting based radiometry assay.
Assay [11] is described as follows: Cytotoxicity against rat H9c2(2-1) cells assessed as reduction in cell viability incubated for 72 hrs by MTT assay. It counts as cell-based. To be noted: H9c2, 72 h. Background: Tetrazolium dyes change colour on reduction, which living cells bring about.
A further assay concerns Vero. As to the kind of experiment: Cytotoxicity against African green monkey Vero cells assessed as reduction in cell viability incubated for 72 hrs by MTT assay. To be noted: Chlorocebus sabaeus. The class given is cell-based.
Another assay concerns L02. Kind of assay: Cytotoxicity against human L02 cells assessed as reduction in cell viability incubated for 72 hrs by MTT assay. The class given is cell-based. To be noted: L02, 72 h.
A further assay concerns SET-2. Kind of assay: Antitumor activity against human SET2 cells xenografted in NOD/SCID mouse assessed as tumor growth inhibition at 60 mg/kg, po qd administered for 16 days and measured every 2 days relative to control. The class given is functional. To be noted: SET-2, po, 384 h, time 16 day, read-out: TGI.
The next assay concerns BaF3. Kind of assay: Antitumor activity against mouse BAF3 cells harboring JAK2 V617F mutant implanted in Balb/c mouse assessed as decrease in liver weight at 60 mg/kg, po qd administered starting from day 4 to 20 and measured on day 25 relative to control. It counts as functional. Also on record: scale not given: the % may be the effect or the level left. To be noted: time 21 day.

A short description of assay [12]: Inhibition of JAK2 V617F mutant in mouse BaF3 cells assessed as reduction in cell viability incubated for 72 hrs by MTT assay.

Sequence of Tyrosine-protein kinase JAK1 (P23458 whole entry): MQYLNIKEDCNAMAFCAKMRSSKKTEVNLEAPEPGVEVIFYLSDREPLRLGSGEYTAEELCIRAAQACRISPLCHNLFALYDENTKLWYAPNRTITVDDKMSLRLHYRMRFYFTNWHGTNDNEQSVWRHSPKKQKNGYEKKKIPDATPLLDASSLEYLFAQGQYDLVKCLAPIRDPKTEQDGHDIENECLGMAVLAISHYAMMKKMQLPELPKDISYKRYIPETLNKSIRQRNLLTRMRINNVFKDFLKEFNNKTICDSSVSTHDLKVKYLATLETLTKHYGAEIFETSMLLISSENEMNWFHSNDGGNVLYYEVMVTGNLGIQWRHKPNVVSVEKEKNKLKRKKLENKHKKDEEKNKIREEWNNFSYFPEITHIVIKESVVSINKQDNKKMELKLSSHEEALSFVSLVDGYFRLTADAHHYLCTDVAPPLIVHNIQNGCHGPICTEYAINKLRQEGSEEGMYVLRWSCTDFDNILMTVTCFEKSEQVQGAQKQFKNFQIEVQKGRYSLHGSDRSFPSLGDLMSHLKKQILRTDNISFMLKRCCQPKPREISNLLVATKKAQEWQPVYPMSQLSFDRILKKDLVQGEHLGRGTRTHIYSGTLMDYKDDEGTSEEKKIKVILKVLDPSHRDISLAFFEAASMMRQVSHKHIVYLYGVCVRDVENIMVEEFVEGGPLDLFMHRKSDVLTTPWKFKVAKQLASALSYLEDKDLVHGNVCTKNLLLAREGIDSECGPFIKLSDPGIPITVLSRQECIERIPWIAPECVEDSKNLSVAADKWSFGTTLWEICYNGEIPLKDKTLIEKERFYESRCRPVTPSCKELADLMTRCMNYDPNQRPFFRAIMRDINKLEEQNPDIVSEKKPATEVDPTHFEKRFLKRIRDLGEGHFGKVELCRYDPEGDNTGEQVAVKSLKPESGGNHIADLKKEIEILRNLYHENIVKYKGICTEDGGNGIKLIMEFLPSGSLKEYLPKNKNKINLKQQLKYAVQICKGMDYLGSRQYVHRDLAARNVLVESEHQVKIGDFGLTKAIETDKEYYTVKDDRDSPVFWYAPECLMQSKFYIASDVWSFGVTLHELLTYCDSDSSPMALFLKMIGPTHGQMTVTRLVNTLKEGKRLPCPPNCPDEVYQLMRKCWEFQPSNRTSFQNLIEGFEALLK
Sequence of Non-receptor tyrosine-protein kinase TYK2 (P29597 whole entry): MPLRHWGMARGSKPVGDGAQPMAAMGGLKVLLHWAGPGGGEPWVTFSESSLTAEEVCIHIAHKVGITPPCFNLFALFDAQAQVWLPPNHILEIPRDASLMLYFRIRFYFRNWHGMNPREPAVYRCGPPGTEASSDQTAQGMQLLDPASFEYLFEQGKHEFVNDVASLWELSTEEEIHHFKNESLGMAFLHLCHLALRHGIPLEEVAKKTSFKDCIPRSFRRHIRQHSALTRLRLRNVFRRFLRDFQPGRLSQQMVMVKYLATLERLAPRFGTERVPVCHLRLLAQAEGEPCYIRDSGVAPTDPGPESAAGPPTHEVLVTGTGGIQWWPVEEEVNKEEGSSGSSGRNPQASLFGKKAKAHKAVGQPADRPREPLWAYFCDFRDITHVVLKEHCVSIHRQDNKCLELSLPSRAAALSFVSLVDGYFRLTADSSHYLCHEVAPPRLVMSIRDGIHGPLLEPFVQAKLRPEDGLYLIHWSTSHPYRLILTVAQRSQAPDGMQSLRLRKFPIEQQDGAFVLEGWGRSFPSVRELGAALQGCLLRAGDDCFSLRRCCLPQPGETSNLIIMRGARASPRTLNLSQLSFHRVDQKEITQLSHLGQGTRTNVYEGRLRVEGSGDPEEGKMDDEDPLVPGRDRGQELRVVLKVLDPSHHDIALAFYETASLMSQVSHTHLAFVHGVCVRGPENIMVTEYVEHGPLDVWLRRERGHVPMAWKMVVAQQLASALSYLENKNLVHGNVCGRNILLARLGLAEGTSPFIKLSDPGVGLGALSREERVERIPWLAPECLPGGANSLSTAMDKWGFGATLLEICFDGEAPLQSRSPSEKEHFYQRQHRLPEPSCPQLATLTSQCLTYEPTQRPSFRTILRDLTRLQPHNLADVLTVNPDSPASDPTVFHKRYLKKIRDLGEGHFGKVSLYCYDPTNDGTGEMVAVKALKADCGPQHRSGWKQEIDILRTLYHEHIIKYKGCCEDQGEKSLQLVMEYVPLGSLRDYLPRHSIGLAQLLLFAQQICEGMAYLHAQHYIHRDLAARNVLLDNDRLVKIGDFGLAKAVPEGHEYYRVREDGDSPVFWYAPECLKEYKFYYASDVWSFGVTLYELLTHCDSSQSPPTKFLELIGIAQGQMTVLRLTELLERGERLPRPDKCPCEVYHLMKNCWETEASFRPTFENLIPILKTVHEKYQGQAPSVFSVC
Sequence of Tyrosine-protein kinase JAK2 (O60674 whole entry): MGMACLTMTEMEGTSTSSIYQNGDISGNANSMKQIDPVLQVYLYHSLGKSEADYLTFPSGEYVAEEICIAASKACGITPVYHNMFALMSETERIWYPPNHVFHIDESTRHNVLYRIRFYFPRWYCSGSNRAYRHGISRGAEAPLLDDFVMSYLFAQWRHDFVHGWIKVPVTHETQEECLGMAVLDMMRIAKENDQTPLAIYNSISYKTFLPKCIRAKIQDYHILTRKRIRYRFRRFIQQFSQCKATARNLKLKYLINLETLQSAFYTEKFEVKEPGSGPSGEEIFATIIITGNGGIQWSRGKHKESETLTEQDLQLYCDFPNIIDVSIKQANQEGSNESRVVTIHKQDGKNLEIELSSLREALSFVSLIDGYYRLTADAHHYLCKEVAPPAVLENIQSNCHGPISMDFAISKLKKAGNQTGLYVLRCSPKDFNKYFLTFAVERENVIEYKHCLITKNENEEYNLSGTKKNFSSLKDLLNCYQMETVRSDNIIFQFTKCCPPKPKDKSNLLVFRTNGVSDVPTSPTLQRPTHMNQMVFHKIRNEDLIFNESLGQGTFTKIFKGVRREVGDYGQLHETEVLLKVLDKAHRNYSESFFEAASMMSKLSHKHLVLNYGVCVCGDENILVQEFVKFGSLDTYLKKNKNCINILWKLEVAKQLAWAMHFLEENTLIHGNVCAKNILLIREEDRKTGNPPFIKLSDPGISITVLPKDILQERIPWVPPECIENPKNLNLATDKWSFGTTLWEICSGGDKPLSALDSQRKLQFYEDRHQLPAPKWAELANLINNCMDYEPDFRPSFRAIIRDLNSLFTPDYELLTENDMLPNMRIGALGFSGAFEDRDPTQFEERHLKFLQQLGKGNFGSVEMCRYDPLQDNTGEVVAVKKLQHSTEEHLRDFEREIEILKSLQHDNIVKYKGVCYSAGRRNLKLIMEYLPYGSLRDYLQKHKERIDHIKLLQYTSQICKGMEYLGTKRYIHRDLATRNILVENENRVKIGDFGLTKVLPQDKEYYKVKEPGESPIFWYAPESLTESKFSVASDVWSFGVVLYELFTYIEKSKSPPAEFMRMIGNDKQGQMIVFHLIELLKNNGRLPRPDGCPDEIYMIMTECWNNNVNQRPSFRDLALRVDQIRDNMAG

As usually defined, the IC50 is the concentration at which inhibition is half-maximal. With `Cc1cnc(Nc2ccc3c(c2)CN(C(=O)/C=C/CN(C)C)CC3)nc1-c1cnn(C(C)C)c1`, the Activity in [1] turned out to be 52%. The IC50 in assay [2] came to 91 nM; in assay [3] it was 45 nM; in assay [7] it was 147 nM; in assay [9], 9 nM; in [10] it was 23 nM. Also, the Ratio IC50 in the assay listed under Homo sapiens stood at 29.8; in assay [4] it was 16; in assay [5] it was 5; in assay [6] it was 2.5; in assay [8], 10.
Consider `Cc1cnc(Nc2ccc3c(c2)CCN(CC#N)C3)nc1-c1cnn(C(C)C)c1`, for which, in assay [1], the Activity came to 50%. In addition, the IC50 is 43 nM in [2]; 56 nM in assay [3]; 54 nM in assay [7]; 7 nM in assay [9]; 108 nM in [10]. The Ratio IC50 in the assay listed under Homo sapiens stood at 8.8; in assay [4] it was 7.7; in assay [5], 8; in [6], 15.4; in [8], 6.1.
In the case of `Cc1ccc(C(=O)/C=C/C(=O)N2CCc3cc(Nc4ncc(C)c(-c5cnn(C(C)C)c5)n4)ccc3C2)cc1`, the Activity in assay [1] stood at 55%. Besides, the IC50 is 1430 nM in assay [11]; 60 nM in assay [2]; 100 nM in [3]; 1050 nM with Vero; 50 nM in assay [7]; 3 nM in assay [9]. Also, the IC50 in assay [10] turned out to be 30 nM; with L02, 2660 nM. Moreover, the Ratio IC50 stood at 51.6 in the assay listed under Homo sapiens; 16.6 in [4]; 33.3 in [5]; 10 in assay [6]; 20 in [8].
`N#CC[C@H](C1CCCC1)n1cc(-c2ncnc3[nH]ccc23)cn1` [RUXOLITINIB]: in the assay with SET-2, the inhibition in vivo at 60 mg/kg came to 52.8%. The Activity with BaF3 turned out to be 80.4%.
On to `Cc1cnc(Nc2ccc(N3CCC(N(C)CCO)CC3)c(F)c2)nc1-c1cnn(C(C)C)c1`, for which, in assay [1], the Activity is 5%. Moreover, the IC50 in assay [12] was 145 nM.
As to `Cc1cnc(Nc2ccc3c(c2)CN(C(=O)/C=C/C(=O)c2ccccc2)CC3)nc1-c1cnn(C(C)C)c1`, the Activity in assay [1] was 47%. Besides, the IC50 in [2] came out at 30 nM; in assay [3] it was 52 nM; in [7] it was 89 nM; in assay [9], 2 nM; in assay [10] it was 16 nM. The Ratio IC50 in the assay listed under Homo sapiens is 12.5; in [4], 44.5; in [5] it was 26; in assay [6] it was 8; in [8], 15.
With `Cc1ccc(C(=O)/C=C/C(=O)N2CCc3ccc(Nc4ncc(C)c(-c5cnn(C(C)C)c5)n4)cc3C2)cc1`, in assay [1], the Activity amounted to 59%. The IC50 in [11] is 1690 nM; in assay [3], 30 nM; in the assay with Vero it was 2470 nM; in assay [7], 28 nM; in [10], 18 nM; in the assay with L02 it was 2030 nM.
Take `COC(=O)/C=C/CN1CCc2cc(Nc3ncc(C)c(-c4cnn(C(C)C)c4)n3)ccc2C1`: the Activity in [1] amounted to 53%. The IC50 in [11] came out at 2890 nM; in assay [2], 26 nM; in assay [3] it was 88 nM; with Vero, 2330 nM; in assay [7] it was 77 nM; in [9], 2 nM. Besides, the IC50 in assay [10] came to 23 nM; in the assay with L02, 1530 nM. The Ratio IC50 in the assay listed under Homo sapiens was determined as 36.3; in assay [4], 38.5; in assay [5] it was 44; in [6], 11.5; in [8], 13.
Regarding `Cc1cnc(Nc2ccc3c(c2)CN(CC#N)CC3)nc1-c1cnn(C(C)C)c1`, the Activity in assay [1] was 51%. Besides, the Ratio IC50 in the assay listed under Homo sapiens is 4.5.
In the case of `Cc1cnc(Nc2ccc3c(c2)CCN(C(=O)/C=C/C(=O)c2ccccc2)C3)nc1-c1cnn(C(C)C)c1`, the Activity in assay [1] was 41%. For the same compound, the IC50 in assay [2] was 47 nM; in [3] it was 79 nM; in [7], 120 nM; in assay [9], 10 nM; in assay [10], 34 nM. The Ratio IC50 in the assay filed under Homo sapiens was found to be 8.8; in [4], 12; in assay [5], 7.9; in assay [6], 3.4; in assay [8], 4.7.
`CCOCCN1CCc2cc(Nc3ncc(C)c(-c4cnn(C(C)C)c4)n3)ccc2C1`: the Activity in assay [1] amounted to 40%. Also, in the assay filed under Homo sapiens, the Ratio IC50 is 1.7.
For `Cc1cnc(Nc2ccc3c(c2)CCN(CCCCO)C3)nc1-c1cnn(C(C)C)c1`, in that order: 56% and 3.3.

These data come from ChEMBL document CHEMBL4715869, “N-(Pyrimidin-2-yl)-1,2,3,4-tetrahydroisoquinolin-6-amine Derivatives as Selective Janus Kinase 2 Inhibitors for the Treatment of Myeloproliferative Neoplasms” (J Med Chem, 2020).
